These are literature values, as cited in paper PMC8513935.

The nature of data set [1]: log P octanol/water from commercial databases, averaged (the ESI). As to conditions: Octanol (wet), 25 C.
A short description of data set [2]: experimental, compiled by the authors from the literature (the ESI cites the sources).
Data set [3] in a line: derived by the authors as gas->solvent minus gas->water (a hypothetical dry solvent; the ESI), not a two-phase measurement.

On to `CCCNCCC`, for which the log K of transfer, water to solvent is 1.67 log10 K in data set [1]; 1.05 log10 K in data set [3] (Benzene, 25 C); 0.671 log10 K in data set [3] (Hexadecane, 25 C); 1.16 log10 K in data set [3] (Toluene, 25 C). In addition, the log K of transfer, gas to solvent in data set [2] (Benzene, 25 C) was 3.73 log10 K; in data set [2] (Hexadecane, 25 C), 3.35 log10 K; in data set [2] (Toluene, 25 C), 3.84 log10 K; in data set [2] (Water, 25 C) it was 2.68 log10 K.
With `CCC(C)CC`, the log K of transfer, water to solvent in data set [1] is 3.6 log10 K; in data set [3] (Butan-1-ol, 25 C), 4.18 log10 K; in data set [3] (Hexadecane, 25 C), 4.42 log10 K; in data set [3] (Pentan-1-ol, 25 C), 4.28 log10 K. The log K of transfer, gas to solvent in data set [2] (Butan-1-ol, 25 C) is 2.34 log10 K; in data set [2] (Hexadecane, 25 C) it was 2.58 log10 K; in data set [2] (Pentan-1-ol, 25 C), 2.44 log10 K; in data set [2] (Water, 25 C), -1.84 log10 K.
Consider `CCCC(C)O` (stereo not drawn), for which the log K of transfer, water to solvent in data set [1] was 1.25 log10 K; in data set [3] (1,2-Dichloroethane, 25 C), 0.78 log10 K; in data set [3] (CCl4, 25 C), 0.23 log10 K; in data set [3] (Hexadecane, 25 C) it was -0.38 log10 K. The log K of transfer, gas to solvent is 4 log10 K in data set [2] (1,2-Dichloroethane, 25 C); 3.45 log10 K in data set [2] (CCl4, 25 C); 2.84 log10 K in data set [2] (Hexadecane, 25 C); 3.22 log10 K in data set [2] (Water, 25 C).
Take `CN(C)C`: the log K of transfer, water to solvent in data set [1] was 0.19 log10 K; in data set [3] (Acetone, 25 C), -0.47 log10 K; in data set [3] (Benzene, 25 C), -0.3 log10 K; in data set [3] (Butan-1-ol, 25 C) it was -0.22 log10 K; in data set [3] (CCl4, 25 C), -0.23 log10 K; in data set [3] (Chlorobenzene, 25 C) it was -0.3 log10 K. The log K of transfer, water to solvent was 0.51 log10 K in data set [3] (Chloroform, 25 C); -0.42 log10 K in data set [3] (Cyclohexane, 25 C); -0.62 log10 K in data set [3] (Diethyl Ether, 25 C); 0.32 log10 K in data set [3] (Ethanol, 25 C); -0.73 log10 K in data set [3] (Hexadecane, 25 C); -0.424 log10 K in data set [3] (Hexane, 25 C). The log K of transfer, water to solvent is -0.41 log10 K in data set [3] (Octan-1-ol(dry), 25 C); 0.21 log10 K in data set [3] (Propan-1-ol, 25 C); -0.36 log10 K in data set [3] (Toluene, 25 C). Besides, the log K of transfer, gas to solvent was 2.05 log10 K in data set [2] (Benzene, 25 C); 2.13 log10 K in data set [2] (Butan-1-ol, 25 C); 2.12 log10 K in data set [2] (CCl4, 25 C); 2.05 log10 K in data set [2] (Chlorobenzene, 25 C); 2.86 log10 K in data set [2] (Chloroform, 25 C); 1.93 log10 K in data set [2] (Cyclohexane, 25 C). Also, the log K of transfer, gas to solvent was 1.73 log10 K in data set [2] (Diethyl Ether, 25 C); 2.67 log10 K in data set [2] (Ethanol, 25 C); 1.62 log10 K in data set [2] (Hexadecane, 25 C); 1.93 log10 K in data set [2] (Hexane, 25 C); 1.94 log10 K in data set [2] (Octan-1-ol, 25 C); 2.56 log10 K in data set [2] (Propan-1-ol, 25 C). Also, the log K of transfer, gas to solvent in data set [2] (Propanone, 25 C) was 1.88 log10 K; in data set [2] (Toluene, 25 C), 1.99 log10 K; in data set [2] (Water, 25 C) it was 2.35 log10 K.
Consider `C/C=C/C`, for which the log K of transfer, water to solvent in data set [1] was 2.31 log10 K; in data set [3] (Acetone, 25 C), 2.79 log10 K; in data set [3] (Hexadecane, 25 C) it was 2.64 log10 K. Also, the log K of transfer, gas to solvent was 1.66 log10 K in data set [2] (Hexadecane, 25 C); 1.81 log10 K in data set [2] (Propanone, 25 C); -0.98 log10 K in data set [2] (Water, 25 C).
Regarding `c1ccc2cc3ccccc3cc2c1`, the log K of transfer, water to solvent is 4.45 log10 K in data set [1]; 4.13 log10 K in data set [3] (2-Methylpropan-1-ol, 25 C); 4.09 log10 K in data set [3] (2-Methylpropan-2-ol, 25 C); 4.25 log10 K in data set [3] (3-Methylbutan-1-ol, 25 C); 5.19 log10 K in data set [3] (Acetone, 25 C); 4.63 log10 K in data set [3] (Acetonitrile, 25 C). Further, the log K of transfer, water to solvent in data set [3] (Benzene, 25 C) was 5.35 log10 K; in data set [3] (Butan-1-ol, 25 C), 4.39 log10 K; in data set [3] (Butan-2-ol, 25 C) it was 4.23 log10 K; in data set [3] (Butanone, 25 C), 5.29 log10 K; in data set [3] (Butyronitrile, 25 C), 5.14 log10 K; in data set [3] (CCl4, 25 C) it was 5.14 log10 K. Besides, the log K of transfer, water to solvent in data set [3] (Chlorobenzene, 25 C) was 5.42 log10 K; in data set [3] (Chloroform, 25 C), 5.37 log10 K; in data set [3] (Cyclohexane, 25 C), 4.49 log10 K; in data set [3] (Cyclohexanone, 25 C) it was 5.5 log10 K; in data set [3] (Decan-1-ol, 25 C), 4.68 log10 K; in data set [3] (Di-n-butyl ether, 25 C) it was 4.76 log10 K. Also, the log K of transfer, water to solvent in data set [3] (Dichloromethane, 25 C) was 5.59 log10 K; in data set [3] (Diethyl Ether, 25 C) it was 4.94 log10 K; in data set [3] (Ethanol, 25 C) it was 4.59 log10 K; in data set [3] (Heptan-1-ol, 25 C), 4.55 log10 K; in data set [3] (Hexadecane, 25 C), 4.54 log10 K; in data set [3] (Hexan-1-ol, 25 C) it was 4.5 log10 K. For the same molecule, the log K of transfer, water to solvent in data set [3] (Hexane, 25 C) is 4.42 log10 K; in data set [3] (Methanol, 25 C) it was 4.22 log10 K; in data set [3] (Octan-1-ol(dry), 25 C), 4.52 log10 K; in data set [3] (Pentan-1-ol, 25 C), 4.43 log10 K; in data set [3] (Propan-1-ol, 25 C), 4.33 log10 K; in data set [3] (Propan-2-ol, 25 C), 4.33 log10 K. The log K of transfer, water to solvent is 5.04 log10 K in data set [3] (Propionitrile, 25 C); 5.68 log10 K in data set [3] (Tetrahydrofuran, 25 C); 5.27 log10 K in data set [3] (Toluene, 25 C). Moreover, the log K of transfer, gas to solvent in data set [2] (2-Methylpropan-1-ol, 25 C) was 7.16 log10 K; in data set [2] (2-Methylpropan-2-ol, 25 C), 7.12 log10 K; in data set [2] (3-Methylbutan-1-ol, 25 C) it was 7.28 log10 K; in data set [2] (Acetonitrile, 25 C) it was 7.66 log10 K; in data set [2] (Benzene, 25 C), 8.38 log10 K; in data set [2] (Butan-1-ol, 25 C), 7.42 log10 K. Also, the log K of transfer, gas to solvent is 7.26 log10 K in data set [2] (Butan-2-ol, 25 C); 8.32 log10 K in data set [2] (Butanone, 25 C); 8.17 log10 K in data set [2] (Butyronitrile, 25 C); 8.17 log10 K in data set [2] (CCl4, 25 C); 8.45 log10 K in data set [2] (Chlorobenzene, 25 C); 8.4 log10 K in data set [2] (Chloroform, 25 C). Further, the log K of transfer, gas to solvent in data set [2] (Cyclohexane, 25 C) was 7.52 log10 K; in data set [2] (Cyclohexanone, 25 C), 8.53 log10 K; in data set [2] (Decan-1-ol, 25 C), 7.71 log10 K; in data set [2] (Di-n-butyl ether, 25 C), 7.79 log10 K; in data set [2] (Dichloromethane, 25 C), 8.62 log10 K; in data set [2] (Diethyl Ether, 25 C), 7.97 log10 K. Moreover, the log K of transfer, gas to solvent was 7.62 log10 K in data set [2] (Ethanol, 25 C); 7.58 log10 K in data set [2] (Heptan-1-ol, 25 C); 7.56 log10 K in data set [2] (Hexadecane, 25 C); 7.53 log10 K in data set [2] (Hexan-1-ol, 25 C); 7.45 log10 K in data set [2] (Hexane, 25 C); 7.25 log10 K in data set [2] (Methanol, 25 C). Further, the log K of transfer, gas to solvent in data set [2] (Octan-1-ol, 25 C) was 7.55 log10 K; in data set [2] (Pentan-1-ol, 25 C), 7.46 log10 K; in data set [2] (Propan-1-ol, 25 C) it was 7.36 log10 K; in data set [2] (Propan-2-ol, 25 C), 7.36 log10 K; in data set [2] (Propanone, 25 C), 8.22 log10 K; in data set [2] (Propionitrile, 25 C), 8.07 log10 K. Besides, the log K of transfer, gas to solvent in data set [2] (Tetrahydrofuran, 25 C) was 8.71 log10 K; in data set [2] (Toluene, 25 C) it was 8.3 log10 K; in data set [2] (Water, 25 C), 3.03 log10 K.
Regarding `Cc1cc(C)c(C)cc1C`, the log K of transfer, water to solvent in data set [1] is 4.1 log10 K; in data set [3] (2-Methylpropan-1-ol, 25 C), 4.24 log10 K; in data set [3] (2-Methylpropan-2-ol, 25 C), 4.32 log10 K; in data set [3] (3-Methylbutan-1-ol, 25 C) it was 4.33 log10 K; in data set [3] (Butan-1-ol, 25 C) it was 4.39 log10 K; in data set [3] (Butan-2-ol, 25 C), 4.32 log10 K. Moreover, the log K of transfer, water to solvent is 4.48 log10 K in data set [3] (Decan-1-ol, 25 C); 4.74 log10 K in data set [3] (Di-n-butyl ether, 25 C); 4.85 log10 K in data set [3] (Diethyl Ether, 25 C); 4.19 log10 K in data set [3] (Ethanol, 25 C); 4.44 log10 K in data set [3] (Heptan-1-ol, 25 C); 4.5 log10 K in data set [3] (Hexadecane, 25 C). Also, the log K of transfer, water to solvent in data set [3] (Hexan-1-ol, 25 C) was 4.42 log10 K; in data set [3] (Hexane, 25 C) it was 4.78 log10 K; in data set [3] (Methanol, 25 C) it was 3.99 log10 K; in data set [3] (Pentan-1-ol, 25 C) it was 4.39 log10 K; in data set [3] (Propan-1-ol, 25 C), 4.26 log10 K; in data set [3] (Propan-2-ol, 25 C), 4.22 log10 K. The log K of transfer, gas to solvent in data set [2] (2-Methylpropan-1-ol, 25 C) is 4.77 log10 K; in data set [2] (2-Methylpropan-2-ol, 25 C), 4.85 log10 K; in data set [2] (3-Methylbutan-1-ol, 25 C), 4.86 log10 K; in data set [2] (Butan-1-ol, 25 C), 4.92 log10 K; in data set [2] (Butan-2-ol, 25 C), 4.85 log10 K; in data set [2] (Decan-1-ol, 25 C) it was 5.01 log10 K. Besides, the log K of transfer, gas to solvent in data set [2] (Di-n-butyl ether, 25 C) was 5.27 log10 K; in data set [2] (Diethyl Ether, 25 C) it was 5.38 log10 K; in data set [2] (Ethanol, 25 C), 4.72 log10 K; in data set [2] (Heptan-1-ol, 25 C), 4.97 log10 K; in data set [2] (Hexadecane, 25 C), 5.03 log10 K; in data set [2] (Hexan-1-ol, 25 C) it was 4.95 log10 K. Also, the log K of transfer, gas to solvent in data set [2] (Hexane, 25 C) is 5.31 log10 K; in data set [2] (Methanol, 25 C) it was 4.52 log10 K; in data set [2] (Pentan-1-ol, 25 C) it was 4.92 log10 K; in data set [2] (Propan-1-ol, 25 C), 4.79 log10 K; in data set [2] (Propan-2-ol, 25 C) it was 4.75 log10 K; in data set [2] (Water, 25 C), 0.53 log10 K.
